Assay results reported in patent US12097200B2, “Combination of BI853520 with chemotherapeutic drugs” (INXMED (NANJING) CO., LTD., priority 2020, dated 2024).
Where “and” joins values, the source holds several entries; their conditions need not be identical. Equal entries are not always repeated. Entries after “also recorded” stand apart in the source; their conditions may differ.

Columns and labels:
NCI-H520 cells = conditions: NCI-H520 xenograft, day 22, combination of both
Description: Mice were approximately 6 weeks old. There were 5 mice in each group.
The cell concentration of the culture was maintained between 8×10^6 to 12×10^7 cells/tissue culture flask.
Cisplatin was dissolved in 0.9% saline.
Statistical evaluation was performed using the Student's t-test function in Microsoft Excel, utilizing a two-tailed distribution and a two-sample equal variance type.

KYSE-70 cells = test: Antitumor activity in mouse xenograft model of human esophageal cancer (KYSE-70); assay type: in vivo; conditions: KYSE-70 xenograft, combination of both
HS 746T cells = test: Antitumor activity in mouse xenograft model of human gastric cancer (HS 746T); assay type: in vivo; conditions: HS 746T xenograft, combination of both
Text: (§1) For tumor volume, absolute values were used.
(§2) Appropriate statistical methods were used for evaluation.
HS 746T: Approximately 6 week old mice.

[1] = tested on: GXA 3039 gastric cancer PDX model
Description: Mice were housed in individual ventilated cages ([sequence] Sealsafe™-IVC-System, [sequence], Hohenpeissenberg, Germany), and type II or III cages were selected according to the number of experimental animals. The cages were under the conditions: 14L:10D light-dark cycle, air exchange (AC) rate of 60-65 AC/hr in the cage, 25±1° C. and 40-70% humidity. […] Water and diet were changed twice a week, and all materials were autoclaved before use.
Tumor fragments were implanted subcutaneously into the flank of female pre-study mice. […] Animals that were not randomized were euthanized. The date of randomization was designated as day 0 of the test, and dosing began on day 1. […] If less than 70% of the original number of mice survived (i.e. less than 6 out of 8), the entire group was terminated. […] Tolerability was assessed using the group with the largest median body weight loss (BWL) among groups.
Inhibition of tumor growth was determined by calculating TGI.
Additional endpoints used to assess efficacy included: time to tumor volume doubling/quadrupling and tumor growth delay/time to tumor progression/tumor repopulation.
Time to tumor volume doubling/quadrupling: The time to tumor volume doubling/quadrupling (Td/Tq) for the test and control groups was defined as the time interval (in days) required for each group to reach 200%/400% of the median RTV. The relative volume of a single tumor on day X (RTVx [%]) was obtained by dividing the absolute volume of the tumor on day X (Tx) by the absolute volume of the tumor on day 0 (T0) and then multiplying it by 100, as follows:
Tumor growth delay/time to tumor progression/tumor repopulation: To assess the difference in time to tumor progression/tumor repopulation after tumor regression during the no-dose observation period (tumor growth delay, TGD), Kaplan-Meier survival analysis was used. A relative tumor volume of 400% was defined as the endpoint.
The control group for oral administration was 0.5% Natrosol. The control group for intravenous administration was 0.9% saline. Each dose was 10 ml/kg.
Data were used for statistical analysis at the end of the study. The one-tailed nonparametric Mann-Whitney-Wilcoxon U test was used with the significance level a set at 0.05. The p-values obtained from the U-test were adjusted using the Bonferroni-Holm correction.
To assess the statistical significance of differences in time to tumor progression/tumor growth delay (TGD) using 400% of RTV as the trial endpoint, the Kaplan-Meier survival mode statistic was used in conjunction with the log-rank Mantel-Cox test for pairwise comparisons.
Additionally, to assess tolerance to treatment, a two-tailed nonparametric Mann-Whitney-Wilcoxon U test was performed using body weights determined at the end of the dosing period (i.e., on the day TGI values were calculated).
By convention, p-values≤0.05 represented significant tumor inhibition or weight loss.

KYSE-270 cells = test: Antitumor activity in mouse xenograft model of human esophageal cancer (KYSE-270); assay type: in vivo; conditions: KYSE-270 xenograft
Text: as §1, §2
Mice were approximately 8-10 weeks old.
KYSE-270 was a cell line for esophageal cancer (Public Health England, Cat. No. 94072021).

[2] = BI 853520 50 mg/kg qd, cisplatin 5 mg/kg IP q7d
[3] = BI 853520 50 mg/kg qd, docetaxel 10 mg/kg q7d
[4] = BI 853520 50 mg/kg qd, paclitaxel 10 mg/kg q7d, combination of both

## N.N.[Cl][Pt][Cl] [Cisplatin, reference compound]
NCI-H520 cells; BI 853520 50 mg/kg qd by gavage, cisplatin 5 mg/kg IP once a week
  Median tumor volume: 228 mm^3
NCI-H520 cells; [2]
  Median TGI: 74%
  Tumor regression (animals with regression/animals in group): 0/7

## CC(=O)O[C@@]12CO[C@@H]1C[C@H](O)[C@@]1(C)C(=O)[C@H](O)C3=C(C)[C@@H](OC(=O)[C@H](O)[C@@H](NC(=O)OC(C)(C)C)c4ccccc4)C[C@@](O)([C@@H](OC(=O)c4ccccc4)[C@H]21)C3(C)C [Docetaxel, reference compound]
KYSE-70 cells; day 42, BI 853520 50 mg/kg qd by gavage, docetaxel 10 mg/kg q7d i.v.
  Median tumor volume: 73 mm^3
KYSE-70 cells; [3]
  Antitumor effect (in words): had inhibitory effect
  Change in median body weight: 5.6%
  TGI: 100%
HS 746T cells; day 24 (withdrawal on day 28), BI 853520 50 mg/kg qd by gavage, docetaxel 10 mg/kg q7d i.v.
  Median tumor volume: 0 mm^3
HS 746T cells; [3]
  Antitumor effect (in words): had inhibitory effect
  Change in median body weight: 6.7%
  TGI: 108%
[1]; GXA 3039 PDX, time to 200% of median RTV, doses as Table 8
  Td (time to tumor volume doubling): 8.5 days
[1]; GXA 3039 PDX, time to 400% of median RTV, nr = not reached until end of test, doses as Table 8
  Tq (time to tumor volume quadrupling): 108.0 days
[1]; GXA 3039 gastric cancer PDX, day 36, BI 853520 50 mg/kg/d PO days 1-35, docetaxel 10 mg/kg IV days 1, 8, 15, 22, 29, combination of both
  TGI [%] (d): 113% and 113(36) %
[1]; female, BomTac:NMRI-Foxn1nu, mouse, in vivo
  Survival rate: 2/8
[1]; mouse, in vivo
  Median BWL maximum: 2.1%
  Median BWL maximum, day: 2 days

## CC(=O)O[C@H]1C(=O)[C@@]2(C)[C@H]([C@H](OC(=O)c3ccccc3)[C@]3(O)C[C@H](OC(=O)[C@H](O)[C@@H](NC(=O)c4ccccc4)c4ccccc4)C(C)=C1C3(C)C)[C@]1(OC(C)=O)CO[C@@H]1C[C@@H]2O [Paclitaxel]
KYSE-270 cells; day 13, BI 853520 50 mg/kg qd by gavage, paclitaxel 10 mg/kg q7d i.v., combination of both
  Median tumor volume: 1033 mm^3
KYSE-270 cells; day 13, BI 853520 50 mg/kg qd, paclitaxel 10 mg/kg q7d, combination of both
  TGI: 2%
KYSE-270 cells; [4]
  Antitumor effect (in words): no effect on tumor growth; also recorded: had no effect
  Change in median body weight: −9.7%
  Tumor regression (animals with regression/animals in group): no tumor regression and 0/7
KYSE-270 cells; paclitaxel 10 mg/kg q7d, value is a decrease
  Animal body weight decreased by: 9.7%
